In ChEMBL document CHEMBL1152888, “Synthesis, pharmacological and in silico evaluation of 1-(4-di-hydroxy-3,5-dioxa-4-borabicyclo[4.4.0]deca-7,9,11-trien-9-yl)-2-(tert-butylamino)ethanol, a compound designed to act as a beta2 adrenoceptor agonist” (Eur J Med Chem, 2009) one finds Activity, Kd and EC50 data, which are given here for three molecules.

Experiment [1] has as its target Beta-2 adrenergic receptor (Cavia porcellus) (UniProt Q8K4Z4). The experiment can be described thus: Agonist activity at adrenergic beta2 receptor in Hartley guinea pig tracheal ring assessed as bronchorelaxation activity against histamine-induced contraction in presence of propranolol. It counts as functional, tissue-based. The conditions noted are these: Trachea.

Experiment [2] has the same target. The experiment is described as follows: (§1) Agonist activity at adrenergic beta2 receptor in Hartley guinea pig tracheal ring assessed as bronchorelaxation activity against carbachol-induced contraction. It counts as functional, tissue-based. The conditions noted are these: Trachea.
Experiment [3] shares this target. The experiment can be described thus: Agonist activity at adrenergic beta2 receptor in Hartley guinea pig tracheal ring assessed as bronchorelaxation activity against histamine-induced contraction in presence of ICI-118551. It counts as functional, tissue-based. Conditions: Trachea.
Experiment [4] shares this target. The experiment is described as follows: (§2) Agonist activity at adrenergic beta2 receptor in Hartley guinea pig tracheal ring assessed as bronchorelaxation activity against histamine-induced contraction. It counts as functional, tissue-based. Conditions: Trachea.
The target of experiment [5] is Beta-2 adrenergic receptor (Homo sapiens, UniProt P07550).
Chain of Beta-2 adrenergic receptor (Homo sapiens, UniProt P07550) (P07550 whole entry): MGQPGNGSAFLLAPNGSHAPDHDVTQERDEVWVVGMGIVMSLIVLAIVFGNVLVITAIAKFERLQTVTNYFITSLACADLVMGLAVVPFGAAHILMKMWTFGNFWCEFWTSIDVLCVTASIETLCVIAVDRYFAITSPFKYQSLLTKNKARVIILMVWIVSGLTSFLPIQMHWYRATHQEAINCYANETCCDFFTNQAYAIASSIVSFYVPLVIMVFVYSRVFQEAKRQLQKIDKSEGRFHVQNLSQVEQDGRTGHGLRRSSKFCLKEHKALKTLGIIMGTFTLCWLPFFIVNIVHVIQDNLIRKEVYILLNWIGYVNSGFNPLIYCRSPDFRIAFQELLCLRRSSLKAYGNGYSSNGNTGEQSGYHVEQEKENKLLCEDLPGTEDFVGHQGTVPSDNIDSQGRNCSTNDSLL
Description: Binding affinity to human adrenergic beta2 receptor
The target in experiment [6] is T1, Beta-2 adrenergic receptor (Cavia porcellus, UniProt Q8K4Z4). The experiment can be described thus: Binding affinity to adrenergic beta2 receptor in Hartley guinea pig tracheal ring.
T1 sequence (Q8K4Z4 whole entry): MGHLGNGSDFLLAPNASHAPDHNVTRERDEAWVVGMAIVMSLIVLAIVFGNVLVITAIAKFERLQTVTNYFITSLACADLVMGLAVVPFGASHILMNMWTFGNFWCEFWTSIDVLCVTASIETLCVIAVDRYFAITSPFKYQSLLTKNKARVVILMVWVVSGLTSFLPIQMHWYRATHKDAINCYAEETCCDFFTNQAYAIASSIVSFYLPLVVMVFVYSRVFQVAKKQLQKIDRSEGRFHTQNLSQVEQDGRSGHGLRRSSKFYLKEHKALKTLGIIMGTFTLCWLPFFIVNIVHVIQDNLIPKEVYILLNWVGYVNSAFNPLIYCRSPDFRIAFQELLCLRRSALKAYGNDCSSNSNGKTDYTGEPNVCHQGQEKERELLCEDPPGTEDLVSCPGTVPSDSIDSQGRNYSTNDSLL
For experiment [7], the target named is T1, Beta-2 adrenergic receptor. The experiment is described as §1. It counts as functional, tissue-based, Trachea.
The target in experiment [8] is Beta-2 adrenergic receptor (Cavia porcellus) (UniProt Q8K4Z4). The experiment can be described thus: Agonist activity at adrenergic beta2 receptor in Hartley guinea pig tracheal ring assessed as maximum bronchorelaxation activity against carbachol-induced contraction at 1 uM. It counts as functional, tissue-based. The conditions noted are these: Trachea.
Chain of Beta-2 adrenergic receptor (Cavia porcellus) (Q8K4Z4 whole entry, looked up): as the sequence (Q8K4Z4 whole entry) above
Experiment [9] concerns the target T1, Beta-2 adrenergic receptor. The description is as §2. It counts as functional, tissue-based, Trachea.
The target of experiment [10] is Beta-2 adrenergic receptor (Cavia porcellus) (UniProt Q8K4Z4). The experiment can be described thus: Agonist activity at adrenergic beta2 receptor in Hartley guinea pig tracheal ring assessed as maximum bronchorelaxation activity against histamine-induced contraction at 1 uM. It counts as functional, tissue-based. Conditions: Trachea.

Activity calls are given as the source filed them. The rule behind the calls is not given here.

`CC(C)(C)NCC(O)c1ccc(O)c(CO)c1` (centres undefined): the outcome in experiment [1] and in experiment [3] was inactive. Moreover, the Activity result in experiment [2] and in experiment [4] was “Dose-dependent effect” each time.

`CC(C)NCC(O)c1cc(O)cc(O)c1` (centres undefined) [METAPROTERENOL] came in with a Kd in experiment [5] of 4810 nM.

For `CC(C)(C)NC[C@@H](O)c1ccc(OB(O)O)c(CO)c1`, the dissociation constant Kd in experiment [6] was 110 nM. The outcome in experiment [1] and in [3] was inactive. For the same molecule, the Activity entry in experiment [2] and in experiment [4] was “Dose-dependent effect” each time. Besides, the values for the concentration for a half-maximal effect (EC50) in experiment [7] and in experiment [9] were 2.1 nM and 0.072 nM, respectively. Also, the outcome in experiment [8] and in [10] was Active.
